Consider 6 compounds from paper PMC12113730 (Microorganisms, 2025).

Like-named read-outs stand apart in the source and are kept apart here. Ends that are not written are not given here.

In one data set the test system is C. albicans ATCC 18804. To be noted: ATCC 18804, 48 h. Here is the method:
(§1) For the antifungal tests, the strains C. albicans ATCC 90028, C. albicans ATCC 18804 and C. albicans ATCC 10231 were donated by the National Institute of Quality Control in Health (INCQS—Fundação Oswaldo Cruz—Fiocruz, Rio de Janeiro, Brazil). To prepare C. albicans for the tests, the lyophilized microorganism was initially reactivated in Sabouraud Dextrose Broth (Kasvi, Pinhais, Brazil) and incubated at 37 °C for 24 h. Then, the yeasts were seeded in Sabouraud Dextrose Agar and incubated for 48 h at 37 °C. Finally, the stock culture obtained was stored in a refrigerator at 4 °C for 3 months.
(§2) To prepare the standardized suspensions, some colonies of C. albicans stock cultures were seeded in Sabouraud Dextrose Broth and incubated for 24 h at 37 °C. After this time, a small aliquot of the inoculum was transferred to sterile Sabouraud Dextrose Broth to obtain a suspension with optical density (OD) between 0.10 and 0.15 (530 nm), with approximate concentration of 1 × 10^6 CFU mL^−1 [34, 35]. Finally, the suspension was diluted to obtain a concentration of 1 × 10^3 CFU mL^−1, which was used in the tests described below.
(§3) The antifungal activity tests were performed using broth microdilution. The broth microdilution was performed as described in the M27-A3 document of Clinical and Laboratory Standards Institute (CLSI) with modifications. The medium used was Sabouraud Dextrose Broth (SDB). The synthetic peptides were dissolved in a Tris·HCl 10 mM pH 7.2 buffer and added to the plate containing SDB for a final concentration in the first well of 160 µmol L^−1. The cell suspension was prepared as described under “Microorganisms and growth conditions”. This suspension was inoculated on a microdilution plate previously prepared with the peptides diluted in a concentration range from 160 to 0.31 µmol L^−1. The control drug used was fluconazole (FLU), diluted in deionized water. The plates were incubated at 37 °C for 48 h and at the end of the incubation time, the OD in each well was read in a spectrophotometer at 595 nm. The test was performed in triplicate for each of the strains.

A further data set relates to C. albicans ATCC 90028. To be noted: ATCC 90028, 48 h, 20 µmol L^-1. Here is the method:
as §1, §2, §3

The conditions of data set [1]: cationic-PAGE; for Time at which the band was no longer observed in the gel (total/complete degradation) / Band of the peptide in the gel at 8 h (in words): 50 µg mL^-1 peptide in 10-fold diluted human WSS; for Peptide remaining (band quantification): 0 h, 50 µg mL^-1 peptide in 10-fold diluted pooled human WSS, Coomassie, Image Lab relative quantity, mean ± SD, duplicate samples.
Protocol: (§4) After an informed consent was obtained from all participants, stimulated whole saliva (WS) samples were collected from healthy, non-smoking adult male and female volunteers ranging from 25 to 39 years old. WS was obtained for three volunteers with good general oral health who were not taking medications that could alter their salivary flow and was performed as described previously in [29, 39]. Salivary secretion was stimulated by chewing a piece of Parafilm wax. WS was collected between 9 and 11 am, at least 2 h after the last meal. The salivary secretion was collected using a collecting tube that was kept on ice until obtaining 5.0 mL. The total volume of collected saliva was centrifuged at 4500× g (Sorvall™ ST 16 Centrifuge—Thermo Fisher Scientific, Waltham, MA, USA) at 4 °C for a period of 30 min to separate bacteria, cells and residues. The total whole saliva pellet and the total whole saliva supernatant (WSS) were separated, and the WSS was pooled and used for the degradation assay.
(§5) To assess and compare proteolysis degradation in the WS environment, all the peptides were added to WSS to observe their degradation over time by cationic-PAGE and HPLC. To investigate the degradation of each peptide, 50 µg mL^−1 of synthetic peptides 0WHst5, WP113, 8WH5, 7WH5 and 6WH5 were added to 10-fold diluted WSS. After 0, 0.5, 1.5, 4, 6, 8, 24 and 48 h of incubation, two aliquots of 100 µL were removed (one for the cationic-PAGE analysis another for HPLC analysis). After that, the aliquots were boiled for 5 min to terminate proteolytic activity. Subsequently the aliquots were diluted in a buffer containing 80% acetonitrile/19.9% H2O/0.1% trifluoroacetic acid, dried using a Vacufuge concentrator (Eppendorf, Westbury, NY, USA) and desalted using ZipTip® Pipette Tips (Merk, Rahway, NJ, USA) to concentrate and purify the samples [29].
(§6) For the cationic-PAGE, the aliquots were dried using a Vacufuge concentrator and resuspended in sample buffer containing 0.04% methyl green (Thermo Fisher Scientific, Waltham, MA, USA) in 40% sucrose. Then, 5 μg of each peptide was used as standard for the test. The stacking and separation gels were polymerized using 100 W incandescent light for 9 min each and the electrophoresis was carried out at a constant voltage of 120 V. The gels were stained with 0.1% Coomassie brilliant blue (w/v), 8% methanol (v/v) and 7% acetic acid (v/v) overnight with agitation. Destaining was carried out with 40% methanol, 10% acetic acid and 50% water (v/v). The extent of degradation was quantified by Image Lab using the relative quantity tool.

A further data set can be described thus: in vitro. The following applies: both, human, 10-fold diluted pooled whole saliva supernatant (WSS).
In a further data set the test system is C. albicans. The following applies: some species of C. albicans; cited from earlier work. An excerpt: High levels of Hst5 were found in the saliva of patients with periodontal and oral fungal infections.
The conditions of data set [2]: for HPLC peak of intact peptide after 8 h (in words): 50 µg mL^-1 peptide in 10-fold diluted human WSS, RP-HPLC C18, UV 280 nm; for Time after which the peptide was still found in the samples in whole saliva: abstract, cationic-PAGE and HPLC assays.
Protocol: as §4
To assess and compare proteolysis degradation in the WS environment, all the peptides were added to WSS to observe their degradation over time by cationic-PAGE and HPLC. […] After 0, 0.5, 1.5, 4, 6, 8, 24 and 48 h of incubation, two aliquots of 100 µL were removed (one for the cationic-PAGE analysis another for HPLC analysis). After that, the aliquots were boiled for 5 min to terminate proteolytic activity. Subsequently the aliquots were diluted in a buffer containing 80% acetonitrile/19.9% H2O/0.1% trifluoroacetic acid, dried using a Vacufuge concentrator (Eppendorf, Westbury, NY, USA) and desalted using ZipTip® Pipette Tips (Merk, Rahway, NJ, USA) to concentrate and purify the samples [29].
The aliquots collected for the HPLC analysis were also dried, desalted and resuspended in 30 μL of 10 mM Tris·HCl pH 7.2 buffer solution. Then, 30 µL was analyzed by HPLC in analytical mode using a Waters Symmetry® C18 5 µm, 4.6 × 250 mm reverse phase column (Part No. WAT054275) (Waters, Milford, MA, USA). The solvents used were all chromatographic grade (purchase from Sigma-Aldrich®, St. Louis, MO, USA) and the water used was ultrapure. The chromatographic conditions were solvents A (0.045% TFA/H2O) and B (0.036% TFA/ACN), in a gradient of 5% to 95% B in 30 min, with a flow of 0.53 mL min^−1 at a detector wavelength of 280 nm, using a Waters Alliance 2695 HPLC connected to a Waters 2996 photodiode array detector (Waters, Milford, MA, USA).
For data set [3], the system named is C. albicans ATCC 10231 (fluconazole-resistant). To be noted: fluconazole-resistant strain, Sabouraud Dextrose Broth, 37 °C, 48 h, OD 595 nm, triplicate. Here is the method: as §1, §2, §3

Protocol for in vitro: as §4, §5, §6

On to `C[C@H](NC(=O)[C@H](Cc1c[nH]cn1)NC(=O)[C@H](CO)NC(=O)[C@H](CC(=O)O)NC(=O)[C@@H](N)Cc1c[nH]c2ccccc12)C(=O)N[C@@H](CCCCN)C(=O)N[C@@H](CCCNC(=N)N)C(=O)N[C@@H](Cc1c[nH]cn1)C(=O)N[C@@H](Cc1c[nH]cn1)C(=O)NCC(=O)N[C@@H](Cc1ccc(O)cc1)C(=O)N[C@@H](CCCCN)C(=O)N[C@@H](CCCNC(=N)N)C(=O)N[C@@H](CCCCN)C(=O)N[C@@H](Cc1ccccc1)C(=O)N[C@@H](Cc1c[nH]cn1)C(=O)N[C@@H](CCC(=O)O)C(=O)N[C@@H](CCCCN)C(=O)N[C@@H](Cc1c[nH]cn1)C(=O)N[C@@H](Cc1c[nH]cn1)C(=O)N[C@@H](CO)C(=O)N[C@@H](Cc1c[nH]cn1)C(=O)N[C@@H](CCCNC(=N)N)C(=O)NCC(=O)N[C@@H](Cc1ccc(O)cc1)C(=O)O` [Peptide 0WHst5], for which the “Inhibition of C. albicans ATCC 18804” value in the data set with C. albicans ATCC 18804 (20 µmol L^-1) was “greater than 80%”. Moreover, the “Inhibition of C. albicans ATCC 90028” value in the data set on C. albicans ATCC 90028 came to 75%. In addition, the “Time at which the band was no longer observed in the gel (total/complete degradation)” value in data set [1] is recorded as at most 4 h. The compound further gave an amount remaining at 0.5 h, 50 µg mL^-1 in “in vitro” of 91 ± 17%.

For the compound Histatin 5 [Hst5], the “Minimum inhibitory concentration (MIC)” value in the data set on C. albicans was 8 to 16 µg/mL.

For WAKRHHGYKRKFH [WP113], in the data set on C. albicans ATCC 90028, the “Inhibition of C. albicans ATCC 90028” value came out at 76%. In data set [1], the “Peptide remaining (band quantification)” value came to 100.0 ± 0.0% and the “Time at which the band was no longer observed in the gel (total/complete degradation)” value is given as above 4 h. For the same compound, the “HPLC peak of intact peptide after 8 h (in words)” value (shortened to “HPLC peak of intact peptide”) in data set [2] was “disappeared”. In the data set “in vitro”, this compound came in with a fraction remaining at 0.5 h, 50 µg mL^-1 of 89.5 ± 7.3% and a share remaining at 4 h, 50 µg mL^-1 of 7.23 ± 8.17%.

Take WKRHHGY [Peptide 6WH5]: in the data set with C. albicans ATCC 18804 (80 µmol L^-1), the “Inhibition of C. albicans ATCC 18804” value is given as “above 70%”. Also, the “Inhibition of C. albicans ATCC 18804” value in the data set with C. albicans ATCC 18804 (160 µmol L^-1) is “greater than 80%”. Further, in data set [1], the “Peptide remaining (band quantification)” value is given as 100.0 ± 0.0% and the “Band of the peptide in the gel at 8 h (in words)” value (“Band of the peptide in the gel” for short) is “possible to visualize the band”. In addition, in data set [2], the “HPLC peak of intact peptide” value was “still detectable” and the “Time after which the peptide was still found in the samples in whole saliva” value (shortened to “Time … in whole saliva”) is at least 8 h. In the data set “in vitro”, this compound displayed a share remaining at 0.5 h, 50 µg mL^-1 of 98.8 ± 1.1%; a fraction remaining at 4 h, 50 µg mL^-1 of 79.3 ± 9.8%; a share remaining at 6 h, 50 µg mL^-1 of 52.4 ± 7%; a share remaining at 8 h, 50 µg mL^-1 of 30.6 ± 4%. Moreover, in “in vitro”, the fraction remaining at 24 h, 50 µg mL^-1 amounted to 16.5 ± 5.9% and the fraction remaining at 48 h, 50 µg mL^-1 was 8.3 ± 6.2%.

Turning to WKRHHGYK [Peptide 7WH5], the “Inhibition of C. albicans ATCC 10231” value in data set [3] (peptide 160 µmol L^-1) turned out to be 90.9%. In addition, the “Inhibition of C. albicans ATCC 18804” value in the data set on C. albicans ATCC 18804 (80 µmol L^-1) is given as “greater than 80%”. Also, in data set [1], the “Peptide remaining (band quantification)” value is 100.0 ± 0.0% and the “Band of the peptide in the gel” value was “possible to visualize the band”. In data set [2], the “HPLC peak of intact peptide” value is recorded as “still detectable” and the “Time … in whole saliva” value is on record as at least 8 h. Besides, in “in vitro”, the share remaining at 0.5 h, 50 µg mL^-1 is 100 ± 4.5%; the amount remaining at 4 h, 50 µg mL^-1 turned out to be 86.2 ± 3.1%; the fraction remaining at 6 h, 50 µg mL^-1 stood at 55.9 ± 5.8%; the amount remaining at 8 h, 50 µg mL^-1 was 49.6 ± 2.4%. In “in vitro”, this compound displayed a fraction remaining at 24 h, 50 µg mL^-1 of 19.1 ± 7.5% and a share remaining at 48 h, 50 µg mL^-1 of 6.9 ± 1%.

With WKRHHGYKR [Peptide 8WH5], in data set [3] (peptide 40 µmol L^-1), the “Inhibition of growth of C. albicans ATCC 10231” value is 85%. In addition, the “Inhibition of C. albicans ATCC 18804” value with C. albicans ATCC 18804 (40 µmol L^-1) was “greater than 80%”. For the same compound, in data set [1], the “Peptide remaining (band quantification)” value is listed as 100.0 ± 0.0% and the “Band of the peptide in the gel” value was “possible to visualize the band”. Also, in data set [2], the “HPLC peak of intact peptide” value was “still detectable” and the “Time … in whole saliva” value was at least 8 h. Also, in “in vitro”, the amount remaining at 0.5 h, 50 µg mL^-1 was determined as 99.9 ± 8%; the fraction remaining at 4 h, 50 µg mL^-1 is 80.3 ± 13%; the share remaining at 6 h, 50 µg mL^-1 worked out at 62 ± 8.4%; the amount remaining at 8 h, 50 µg mL^-1 worked out at 44.2 ± 0.9%. In the data set “in vitro”, this compound showed an amount remaining at 24 h, 50 µg mL^-1 of 8.6 ± 4.4% and a share remaining at 48 h, 50 µg mL^-1 of 3.5 ± 0.8%.
